Key:
[1] = test system: stem and neuroprogenitor cells in the SVZ; test: Morphological studies of proliferation, directed migration and differentiation induction (Example 3); format: in vivo, rat
[2] = test system: neural precursor cells of the subependymal zone; test: Periventricular cellular expansion and striatal ridge formation (thionin, silver staining, immunohistochemistry); format: in vivo, rat; conditions: for (incidence of striatal ridge) / Expansion (incidence of cellular expansion along ventricle): midstriatal infusion 0.5 μg/day
Protocol: Adult male Sprague-Dawley rats weighing 250-300 grams were used throughout the study. Twenty-four animals received standard midstriatal infusions of rat TGFα (0.5 μg/day; Sigma Chemical Co.). Another 26 rats received either artificial cerebrospinal fluid (“aCSF”) or no infusion. A subset of animals in the standard TGFα infusion group and the control group received stereotaxic 6-OHDA injections into the substantia nigra 48 hours after the infusions were begun. Animals used in this portion of the study were classified into six groups according to their infusion-lesion combination, as follows: TGFα infusion, lesion (n=13); TGFα infusion, no lesion (n=11); aCSF infusion, lesion (n=12); aCSF infusion, no lesion (n=9); no infusion, lesion (n=1); no infusion, no lesion (n=4).
Additional animals received TGFα infusions into other regions of striatum, the lateral ventricle, cerebral cortex, or the septum. Four more animals (two per group) received midstriatal TGFα infusions at one-half or one-tenth the standard dose. Also, two animals received midstriatal infusions of epidermal growth factor (EGF) instead of TGFα. The EGF administered in these rats was at the standard 0.5 μg/day dose. All of the animals in these extra groups were lesioned. Rats in all of the experiments were typically perfused one to 16 days postlesion (3-18 days of infusion). […] Brain sections were prepared and stained using various immunocytochemical and histochemical techniques.
Rats were anesthetized with 8 mg xylazine and 100 mg ketamine/kg. Infusions of TGFα were provided up to 18 days by Alzet osmotic minipump (2002). The minipumps were filled to about 200 μl with either aCSF for control animals or 20 μg TGFα in 400 μl of aCSF (50 μg/ml) for experimental animals. Under sterile conditions, the infusion cannula was positioned to stereotaxic coordinates (+1.2 A/P; +2.7 M/L; −6.0 D/V) based on Bregma (Paxinos and Watson, The Rat Brain in Stereotaxic Coordinates, Academic Press, San Diego, 1986) and cemented to the top of the skull with dental cement. The infusate was delivered via cannula at approximately 0.5 μl/hour. Some additional control animals received infusions either into the lateral ventricle, the overlying cortex, or other areas.
Forty-eight hours after the minipump implant, rats were anesthetized as above. A chilled 4.8 mg/ml solution of 6-OHDA HCl was prepared immediately prior to injection. […] A 6-8 μl volume was injected at a rate of 1 μl/minute.
Animals were perfused with 500 ml of 4% paraformaldehyde in 0.1 M phosphate buffered saline (PBS; pH 7.4) one to 16 days postlesion and their brains placed into 20% sucrose. The next day, the brains were frozen in isopentane at −20° C. Forty-micron coronal sections were then cut on a freezing microtome into 2% paraformaldehyde in 0.1 M PBS. Continuous sections were taken through the striatum and substantia nigra-VTA. Representative sections were taken through the rest of the brain.
Microtomed brain sections for Nissl staining were mounted onto gelatin-coated slides and allowed to dry overnight. They were then dehydrated and rehydrated through ethanol baths, and placed in Thionin solution for approximately four minutes. The sections were dehydrated through the series of ethanol baths, cleared in successive Histoclear™ washes, and coverslipped. Section were viewed under light microscopy and photographed with Technical Pan Film™ (Kodak, Inc.) at ISO 100 (HC-110 processing for six minutes).
Degenerating fibers and cells of the ridge were labeled using a modification to the Nauta staining method, similar to Procedure I of Fink-Heimer (Giolli and Karamanlidis, In: Neuroanatomical Research Techniques, R. T. Robertson, Ed., pp. 211-240, Academic Press, New York, 1978).

[3] = infusion into the lateral ventricle, 6-OHDA-lesioned
[4] = intracerebroventricular (ICV) infusion ipsilateral to lesion, two weeks
[5] = lower doses of TGFα (one-half or one-tenth the standard dose), lesioned

Substance: TGFα: transforming growth factor alpha polypeptide, EGF-family growth factor that binds the EGF receptor; infused into rat brain
- effectiveness in inducing ridge formation ([1]; 10 ug dose): minimally less effective
- thickening of the SVZ ([1]; 4 to 6 days of continuous infusion, lesioned animals): pronounced thickening of the SVZ
- effectiveness in inducing ridge formation ([1]; 50 and 100 ug dose): equally effective
- 5′BrdU incorporation into the SVZ ([1]; first three days of infusion): massively increased incorporation
- nestin staining of SVZ and ridge cells ([1]; from the fourth day of infusion): nestin-positive
- SVZ proliferation [1, 3]: temporary proliferation of SVZ cells
- migratory ridge [1, 3]: no migratory ridge
- SVZ proliferation ([1]; infusion into the septum): massive proliferation of the SVZ
- β-III tubulin (neuronal lineage) staining ([1]; starting at 14 days of infusion): β-III tubulin positive cells were seen
- tyrosine hydroxylase (TH) positive cells in the striatum ([1]; third and fourth week of infusion, 6-OHDA-lesioned): increasing numbers of TH positive cells
- difference in distance between lateral extents of the ridges and the ventricle wall, 12 vs 16 days of infusion ([2]; 6-OHDA lesion, midstriatal TGFα): approximately 1.6 mm
- distance of ventral portion of the ridge from the ventricle wall ([2]; 12 days infusion, 6-OHDA lesion, midstriatal TGFα): ≤ 400 μm
- distance of ventral portion of the ridge from the ventricle ([2]; 16 days infusion, 6-OHDA lesion, midstriatal TGFα): up to two mm
- nestin immunostaining of the ridge ([2]; TGFα infusion fourteen days, lesioned): intensely stained
- GFAP immunostaining of striatal ridge and cellular expansion ([2]; TGFα-induced ridge, two weeks of infusion): failed to stain
- expansion of cells along the ipsilateral ventricle ([2]; cortical infusions slightly penetrating the corpus callosum, two weeks, lesioned): stimulated expansion of cells
- cell density along the lateral ventricle ([2]; dorsal cortical infusions not penetrating the corpus callosum, two weeks, lesioned): no discernable effect
- buildup of cells in the adjacent ventricular wall [2, 4]: stimulated the buildup of cells
- formation of the striatal ridge [2, 4]: did not induce formation of the striatal ridge
- buildup of cells along the ventricle ipsilateral to the infusion (thionin) ([2]; intrastriatal TGFα infusions of six days or more): dramatic buildup of cells
- cellular expansion and ridge formation [2, 5]: induced both the cellular expansion and ridge formation
- number of cells in expansion and ridge (qualitative) [2, 5]: decreased
- (incidence of striatal ridge) ([2]; 6-OHDA lesion, n=13): 92%
- Expansion (incidence of cellular expansion along ventricle) ([2]; 6-OHDA lesion, n=13): 100%
- (incidence of striatal ridge) ([2]; no lesion, n=11): 27%
- Expansion (incidence of cellular expansion along ventricle) ([2]; no lesion, n=11): 100%
- formation of septal ridges ([2]; septal and some striatal infusions, two weeks, lesioned): stimulated the formation of septal ridges

— US20010007657A1, “Compositions and methods for manipulating glial progenitor cells and treating neurological deficits” (priority 1997, published 2001)
